Measurements: patent US20170008888A1 (KYORIN PHARMACEUTICAL CO., LTD., priority 2014, published 2017)
Read-outs that look alike come from different tables or passages of the source.

Columns and labels:
ERK5 = biological target: T1, ERK5 (Homo sapiens, UniProt Q13164); experiment: Probe-based (AX9989 acyl phosphate ATP probe) kinase profiling in Jurkat lysate: ERK5; assay type: binding; settings: for IC50: Jurkat lysate; for inhibition at 0.1 µM: screening concentration 0.1 μM
T1 construct: screened for activity against several kinases in Jurkat cells; endogenous in cells; host or cells: Jurkat cell lysate
Procedure, shortened: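 Gel-filtered Jurkat lysate (5 mg/ml, 20 mM MnCl2) preincubated 15 min at room temperature with compound, then labelled with 5 μM AX9989 acyl phosphate ATP probe. Probe-labelled ERK5 active-site peptides quantified by LC/MS after trypsin digestion and streptavidin capture; IC50 calculated from percent inhibition at the screening concentration.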

AurA = biological target: T2, AurA (Homo sapiens, UniProt O14965); experiment: Probe-based (AX9989) kinase profiling in Jurkat lysate: AurA; assay type: binding; settings: for inhibition at 0.1 µM: screening concentration 0.1 μM
T2 construct: screened for activity against several kinases in Jurkat cells; endogenous in cells; host or cells: Jurkat cell lysate
T2 sequence (O14965 1-403): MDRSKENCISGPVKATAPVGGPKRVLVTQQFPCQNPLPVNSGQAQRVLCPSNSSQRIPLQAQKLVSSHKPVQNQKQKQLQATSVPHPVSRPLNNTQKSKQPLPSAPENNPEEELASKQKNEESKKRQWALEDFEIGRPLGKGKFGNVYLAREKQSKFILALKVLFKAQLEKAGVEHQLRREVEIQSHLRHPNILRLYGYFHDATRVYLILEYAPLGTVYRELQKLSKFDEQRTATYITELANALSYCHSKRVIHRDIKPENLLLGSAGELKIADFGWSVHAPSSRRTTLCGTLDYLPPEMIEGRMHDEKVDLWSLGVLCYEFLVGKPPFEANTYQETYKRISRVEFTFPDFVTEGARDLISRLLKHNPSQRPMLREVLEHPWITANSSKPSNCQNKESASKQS
Procedure, shortened: (§1)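 Compounds were pre-incubated for 15 min at room temperature with gel-filtered Jurkat cell lysate supplemented with 20 mM MnCl2, after which the acyl phosphate ATP probe AX9989 was added at 5 μM final. Labeled active-site peptides were enriched after tryptic digestion and measured by LC/MS, with percent inhibition taken relative to samples without compound.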

AurB or AurC = experiment: Probe-based (AX9989) kinase profiling in Jurkat lysate: AurB or AurC; assay type: binding; settings: for AurB or AurC Inhibition % at indicated screening concentration: screening concentration 1 μM
Procedure, shortened: as §1

JAK1 = biological target: T3, JAK1 (Homo sapiens, UniProt P23458); experiment: Probe-based (AX9989) kinase profiling in Jurkat lysate: JAK1; assay type: binding; settings: for inhibition at 0.1 µM: screening concentration 0.1 μM
T3 construct: screened for activity against several kinases in Jurkat cells; endogenous in cells; host or cells: Jurkat cell lysate
Procedure, shortened: as §1

AMPKa1 or AMPKa2 = experiment: Probe-based (AX9989) kinase profiling in Jurkat lysate: AMPKa1 or AMPKa2; assay type: binding; settings: for AMPKa1 or AMPKa2 Inhibition % at indicated screening concentration: screening concentration 1 μM
Procedure, shortened: as §1

TAO2 = biological target: T4, TAO2 (Homo sapiens, UniProt Q9UL54); experiment: Probe-based (AX9989) kinase profiling in Jurkat lysate: TAO2; assay type: binding; settings: for inhibition at 0.1 µM: screening concentration 0.1 μM
T4 construct: screened for activity against several kinases in Jurkat cells; endogenous in cells; host or cells: Jurkat cell lysate
T4 sequence (Q9UL54 1-1235): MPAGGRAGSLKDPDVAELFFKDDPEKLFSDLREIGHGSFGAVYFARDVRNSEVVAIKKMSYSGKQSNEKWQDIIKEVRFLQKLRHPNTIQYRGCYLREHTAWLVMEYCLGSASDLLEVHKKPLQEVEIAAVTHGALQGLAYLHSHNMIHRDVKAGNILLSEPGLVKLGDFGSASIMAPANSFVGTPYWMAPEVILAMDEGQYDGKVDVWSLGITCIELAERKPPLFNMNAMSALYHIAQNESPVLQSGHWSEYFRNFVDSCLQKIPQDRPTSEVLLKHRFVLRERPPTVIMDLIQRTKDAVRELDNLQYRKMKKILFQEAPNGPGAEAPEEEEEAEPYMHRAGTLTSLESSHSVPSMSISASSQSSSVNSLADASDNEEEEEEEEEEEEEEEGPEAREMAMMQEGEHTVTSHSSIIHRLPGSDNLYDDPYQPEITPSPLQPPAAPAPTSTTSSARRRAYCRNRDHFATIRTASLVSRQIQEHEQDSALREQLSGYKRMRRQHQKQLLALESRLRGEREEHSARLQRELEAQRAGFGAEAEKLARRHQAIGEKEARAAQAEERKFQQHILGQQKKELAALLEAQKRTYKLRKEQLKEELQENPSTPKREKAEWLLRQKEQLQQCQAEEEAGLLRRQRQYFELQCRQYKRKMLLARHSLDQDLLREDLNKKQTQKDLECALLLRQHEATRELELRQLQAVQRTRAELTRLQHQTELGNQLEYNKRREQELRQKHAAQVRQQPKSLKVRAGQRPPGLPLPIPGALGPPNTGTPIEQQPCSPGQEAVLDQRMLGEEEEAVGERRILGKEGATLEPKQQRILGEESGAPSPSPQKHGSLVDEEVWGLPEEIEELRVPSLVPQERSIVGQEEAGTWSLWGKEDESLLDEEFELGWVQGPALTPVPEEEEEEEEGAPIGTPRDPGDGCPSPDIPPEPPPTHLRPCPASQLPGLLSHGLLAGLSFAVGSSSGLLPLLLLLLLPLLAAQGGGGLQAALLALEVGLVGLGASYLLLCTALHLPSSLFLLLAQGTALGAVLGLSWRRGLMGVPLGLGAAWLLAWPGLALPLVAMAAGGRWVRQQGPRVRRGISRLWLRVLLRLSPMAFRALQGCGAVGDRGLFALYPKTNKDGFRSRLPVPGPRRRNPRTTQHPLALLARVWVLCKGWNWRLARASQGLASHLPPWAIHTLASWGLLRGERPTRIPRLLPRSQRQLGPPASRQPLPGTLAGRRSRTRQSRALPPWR
Procedure, shortened: as §1

ACK = biological target: T5, ACK (Homo sapiens, UniProt Q07912); experiment: Probe-based (AX9989) kinase profiling in Jurkat lysate: ACK; assay type: binding; settings: for inhibition at 0.1 µM: screening concentration 0.1 μM
T5 construct: screened for activity against several kinases in Jurkat cells; endogenous in cells; host or cells: Jurkat cell lysate
Procedure, shortened: as §1

ABL or ARG = experiment: Probe-based (AX9989) kinase profiling in Jurkat lysate: ABL or ARG; assay type: binding; settings: for ABL or ARG Inhibition % at indicated screening concentration: screening concentration 1 μM
Procedure, shortened: as §1

human PBMCs = experiment: Human PBMC TNF-α response to endotoxin (ELISA); assay type: cell-based; settings: 0.1 μg/ml LPS 16 h, read-out: EC50 for the inhibition of the human PBMC TNF-α response to endotoxin, ave. ± S.D.
Description: Human PBMCs (Astarte Biologics, Redmond, Wash.) were seeded at 2e6 cells/ml in RPMI 1640 containing 10% (v/v) charcoal-dextran treated, heat inactivated FBS (Omega Scientific, Tarzana, Calif.), 0.05 mM 2-Mercaptoethanol (Sigma-Aldrich, St. Louis, Mo.), and 1×Pen/Strep Amphotericin B (Lonza, Allendale, N.J.). Cells were pre-treated with test compounds (10 μM down by ⅕ in a 4-point serial dilution series) for 1 h at 37° C. in a humidified atmosphere at 5% CO2. Cells were then stimulated with 0.1 μg/ml lipopolysaccharide (LPS) from E. coli 0111:B4 (EMD Millipore, Billerica, Mass.) for 16 h at 37° C. in a humidified atmosphere at 5% CO2. Supernatant was collected and a 25-fold dilution was analyzed for TNF-α concentration using an ELISA kit from Life Technologies (Grand Island, N.Y.) according to the manufacturer's instructions. Absorbance at 450 nm was read using the Synergy 2 multi-detection microplate reader (BioTek Instruments, Winooski, Vt.).

[1] = calculated from percent inhibition of AX9989 labeling and the screening concentration
[2] = screening concentration 1.0 μM, read-out: Kinase inhibition % at indicated screening concentration: ERK5
[3] = screening concentration 1.0 μM, read-out: Kinase inhibition % at indicated screening concentration: AurA
[4] = screening concentration 1.0 μM, read-out: Kinase inhibition % at indicated screening concentration: JAK1
[5] = screening concentration 1.0 μM, read-out: Kinase inhibition % at indicated screening concentration: TAO2
[6] = screening concentration 1.0 μM, read-out: Kinase inhibition % at indicated screening concentration: ACK
[7] = read-out: Kinase inhibition % at indicated screening concentration: ERK5
[8] = read-out: Kinase inhibition % at indicated screening concentration: AurA
[9] = read-out: Kinase inhibition % at indicated screening concentration: JAK1
[10] = read-out: Kinase inhibition % at indicated screening concentration: TAO2
[11] = read-out: Kinase inhibition % at indicated screening concentration: ACK
[12] = calculated from percent inhibition and screening concentration, AX9989 probe
[13] = screening concentration 1 μM, read-out: ERK5 Inhibition % at indicated screening concentration
[14] = screening concentration 1 μM, read-out: AurA Inhibition % at indicated screening concentration
[15] = screening concentration 1 μM, read-out: JAK1 Inhibition % at indicated screening concentration
[16] = screening concentration 1 μM, read-out: TAO2 Inhibition % at indicated screening concentration
[17] = screening concentration 1 μM, read-out: ACK Inhibition % at indicated screening concentration

T5 sequence (Q07912 whole entry): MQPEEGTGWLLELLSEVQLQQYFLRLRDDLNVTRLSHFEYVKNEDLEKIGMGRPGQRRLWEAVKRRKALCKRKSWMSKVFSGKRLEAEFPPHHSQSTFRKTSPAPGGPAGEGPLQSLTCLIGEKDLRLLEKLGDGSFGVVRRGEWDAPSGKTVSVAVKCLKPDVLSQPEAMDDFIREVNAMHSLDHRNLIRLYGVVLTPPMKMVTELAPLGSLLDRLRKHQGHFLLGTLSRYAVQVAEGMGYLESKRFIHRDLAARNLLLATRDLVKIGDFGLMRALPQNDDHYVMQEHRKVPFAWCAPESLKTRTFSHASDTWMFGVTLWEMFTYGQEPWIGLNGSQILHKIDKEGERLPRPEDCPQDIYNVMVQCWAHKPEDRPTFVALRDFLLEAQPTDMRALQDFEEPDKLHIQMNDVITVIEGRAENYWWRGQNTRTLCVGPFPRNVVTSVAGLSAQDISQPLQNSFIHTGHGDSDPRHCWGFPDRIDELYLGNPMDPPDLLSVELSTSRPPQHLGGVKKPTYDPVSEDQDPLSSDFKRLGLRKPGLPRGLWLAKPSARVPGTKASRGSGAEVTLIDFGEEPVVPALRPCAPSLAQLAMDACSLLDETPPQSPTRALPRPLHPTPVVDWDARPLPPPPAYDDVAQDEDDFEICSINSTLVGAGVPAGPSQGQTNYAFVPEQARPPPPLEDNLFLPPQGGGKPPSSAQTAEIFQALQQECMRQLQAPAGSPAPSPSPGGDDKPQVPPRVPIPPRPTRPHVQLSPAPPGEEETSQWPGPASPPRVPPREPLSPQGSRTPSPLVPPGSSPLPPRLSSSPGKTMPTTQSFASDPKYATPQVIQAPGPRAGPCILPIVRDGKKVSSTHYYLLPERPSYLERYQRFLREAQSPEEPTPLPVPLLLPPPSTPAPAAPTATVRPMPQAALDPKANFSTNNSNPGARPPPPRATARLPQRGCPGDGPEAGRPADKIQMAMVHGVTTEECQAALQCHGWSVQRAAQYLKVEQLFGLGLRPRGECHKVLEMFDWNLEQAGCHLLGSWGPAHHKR
T1 sequence (Q13164 whole entry): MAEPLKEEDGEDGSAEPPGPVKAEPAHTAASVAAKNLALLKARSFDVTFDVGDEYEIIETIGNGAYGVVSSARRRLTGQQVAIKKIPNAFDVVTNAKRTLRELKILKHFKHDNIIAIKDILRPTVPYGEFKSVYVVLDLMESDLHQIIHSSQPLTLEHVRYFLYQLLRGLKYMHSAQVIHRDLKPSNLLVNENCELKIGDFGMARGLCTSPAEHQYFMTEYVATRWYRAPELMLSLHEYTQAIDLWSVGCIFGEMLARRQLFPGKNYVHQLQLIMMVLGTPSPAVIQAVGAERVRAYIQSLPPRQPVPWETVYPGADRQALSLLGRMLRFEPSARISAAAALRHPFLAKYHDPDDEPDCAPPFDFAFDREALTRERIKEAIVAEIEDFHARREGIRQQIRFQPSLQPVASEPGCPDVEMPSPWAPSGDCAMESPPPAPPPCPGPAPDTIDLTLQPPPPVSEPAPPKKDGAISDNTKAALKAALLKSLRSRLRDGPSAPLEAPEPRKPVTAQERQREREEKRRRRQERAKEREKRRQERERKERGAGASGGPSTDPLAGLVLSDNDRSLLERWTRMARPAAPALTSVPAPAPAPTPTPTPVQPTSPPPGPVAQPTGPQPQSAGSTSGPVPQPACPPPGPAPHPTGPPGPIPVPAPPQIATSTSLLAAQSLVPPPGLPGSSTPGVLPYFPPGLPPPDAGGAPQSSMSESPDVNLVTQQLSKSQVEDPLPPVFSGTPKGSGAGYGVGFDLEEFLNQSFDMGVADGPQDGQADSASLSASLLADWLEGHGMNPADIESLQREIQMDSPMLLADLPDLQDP
T3 sequence (P23458 whole entry): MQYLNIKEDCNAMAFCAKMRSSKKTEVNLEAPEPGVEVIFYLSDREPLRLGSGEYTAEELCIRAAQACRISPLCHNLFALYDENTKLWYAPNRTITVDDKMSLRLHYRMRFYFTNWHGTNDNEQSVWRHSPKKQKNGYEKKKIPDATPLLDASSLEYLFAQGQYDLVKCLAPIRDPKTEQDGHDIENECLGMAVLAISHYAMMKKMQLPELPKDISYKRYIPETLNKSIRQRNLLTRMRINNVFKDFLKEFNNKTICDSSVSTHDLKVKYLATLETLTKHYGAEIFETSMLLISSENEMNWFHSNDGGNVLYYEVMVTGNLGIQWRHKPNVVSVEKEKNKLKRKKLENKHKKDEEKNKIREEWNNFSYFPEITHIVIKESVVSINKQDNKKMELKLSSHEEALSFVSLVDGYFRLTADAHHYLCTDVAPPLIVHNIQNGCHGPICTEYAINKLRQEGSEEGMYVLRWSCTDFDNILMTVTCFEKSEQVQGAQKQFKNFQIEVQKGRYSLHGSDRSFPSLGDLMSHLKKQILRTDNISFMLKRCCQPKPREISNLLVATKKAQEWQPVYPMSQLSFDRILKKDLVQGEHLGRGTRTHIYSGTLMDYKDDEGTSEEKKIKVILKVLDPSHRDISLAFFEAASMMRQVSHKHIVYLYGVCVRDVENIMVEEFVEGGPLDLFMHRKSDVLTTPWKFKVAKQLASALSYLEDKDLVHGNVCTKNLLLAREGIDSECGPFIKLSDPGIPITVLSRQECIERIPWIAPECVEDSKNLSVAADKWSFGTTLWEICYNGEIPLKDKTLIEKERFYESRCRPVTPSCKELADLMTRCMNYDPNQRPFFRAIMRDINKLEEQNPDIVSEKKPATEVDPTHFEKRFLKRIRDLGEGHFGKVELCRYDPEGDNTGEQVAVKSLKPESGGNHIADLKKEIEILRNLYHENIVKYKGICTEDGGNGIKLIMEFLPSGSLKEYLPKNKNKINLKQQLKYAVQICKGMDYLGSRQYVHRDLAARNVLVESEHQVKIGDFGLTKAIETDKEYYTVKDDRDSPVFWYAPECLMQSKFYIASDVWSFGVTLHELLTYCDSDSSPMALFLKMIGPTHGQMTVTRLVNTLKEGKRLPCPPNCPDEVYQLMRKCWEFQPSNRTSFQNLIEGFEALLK

Structure (SMILES)	IC50 (ERK5; [1]) [nM]	inhibition at 1 µM (ERK5; [2]) [%]	inhibition at 1 µM (AurA; [3]) [%]	Kinase inhibition % at indicated screening concentration: AurB or AurC (AurB or AurC; screening concentration 1.0 μM)	inhibition at 1 µM (JAK1; [4]) [%]	Kinase inhibition % at indicated screening concentration: AMPKa1 or AMPKa2 (AMPKa1 or AMPKa2; screening concentration 1.0 μM)	inhibition at 1 µM (TAO2; [5]) [%]	inhibition at 1 µM (ACK; [6]) [%]	Kinase inhibition % at indicated screening concentration: ABL or ARG (ABL or ARG; screening concentration 1.0 μM)	EC50 (human PBMCs) [nM]	other results
CCOc1cc(C(=O)NCCN2CCOCC2)ccc1Nc1cc2c(cn1)N(C)C(=O)c1ccccc1N2C [Compound 5]	101 to 500	50 to 75	≤ 35	E (E is ≦35%)	≤ 35	E (E is ≦35%)	≤ 35	≤ 35	D (D is >35% to ≦50%)	1750	
CCOc1cc(C(=O)N2CCC(N)C2)ccc1Nc1cc2c(cn1)N(C)C(=O)c1occc1N2C (centres unmarked) [Compound 11]	≤ 50									2520	inhibition at 0.1 µM (ERK5; [7]): > 90%; inhibition at 0.1 µM (AurA; [8]): ≤ 35%; Kinase inhibition % at indicated screening concentration: AurB or AurC (AurB or AurC; screening concentration 0.1 μM): E (E is ≦35%); inhibition at 0.1 µM (JAK1; [9]): ≤ 35%; Kinase inhibition % at indicated screening concentration: AMPKa1 or AMPKa2 (AMPKa1 or AMPKa2; screening concentration 0.1 μM): E (E is ≦35%); inhibition at 0.1 µM (TAO2; [10]): ≤ 35%; inhibition at 0.1 µM (ACK; [11]): ≤ 35%; Kinase inhibition % at indicated screening concentration: ABL or ARG (ABL or ARG; screening concentration 0.1 μM): E (E is ≦35%)
COc1cccnc1Nc1cc2c(cn1)N(C)C(=O)c1ccccc1N2C [Compound 14]	> 500	> 90	≤ 35	E (E is ≦35%)	≤ 35	E (E is ≦35%)	≤ 35	≤ 35	E (E is ≦35%)	2850	
CCN(CC)CCNC(=O)c1ccc(OC)c(Nc2cc3c(cn2)N(C)C(=O)c2ccccc2N3C)c1 [Compound 16]	101 to 500	75 to 90	≤ 35	E (E is ≦35%)	≤ 35	E (E is ≦35%)	≤ 35	≤ 35	E (E is ≦35%)	1870	
Cc1cc(C(=O)N2CC[C@@H](N(C)C)C2)ccc1Nc1cc2c(cn1)N(C)C(=O)c1ccccc1N2C [Compound 32]	≤ 50									6360	inhibition at 0.1 µM (ERK5; [7]): 75 to 90%; inhibition at 0.1 µM (AurA; [8]): ≤ 35%; Kinase inhibition % at indicated screening concentration: AurB or AurC (AurB or AurC; screening concentration 0.1 μM): E (E is ≦35%); inhibition at 0.1 µM (JAK1; [9]): ≤ 35%; Kinase inhibition % at indicated screening concentration: AMPKa1 or AMPKa2 (AMPKa1 or AMPKa2; screening concentration 0.1 μM): E (E is ≦35%); inhibition at 0.1 µM (TAO2; [10]): ≤ 35%; inhibition at 0.1 µM (ACK; [11]): ≤ 35%; Kinase inhibition % at indicated screening concentration: ABL or ARG (ABL or ARG; screening concentration 0.1 μM): E (E is ≦35%)
CN1C(=O)c2ccccc2N(S(C)(=O)=O)c2cc(N[C@H]3CC[C@H](O)CC3)ncc21 [Compound T86, 3-(((1r,4r)-4-hydroxycyclohexyl)amino)-11-methyl-5-(methylsulfonyl)-5H-benzo[e]pyrido[3,4-b][1,4]diazepin-10(11H)-one]											IC50 (ERK5; [12]): > 500 nM; inhibition at 1 µM (ERK5; [13]): 35 to 50%; inhibition at 1 µM (AurA; [14]): ≤ 35%; AurB or AurC Inhibition % at indicated screening concentration (AurB or AurC): E (E is ≦35%); inhibition at 1 µM (JAK1; [15]): ≤ 35%; AMPKa1 or AMPKa2 Inhibition % at indicated screening concentration (AMPKa1 or AMPKa2): E (E is ≦35%); inhibition at 1 µM (TAO2; [16]): ≤ 35%; inhibition at 1 µM (ACK; [17]): ≤ 35%; ABL or ARG Inhibition % at indicated screening concentration (ABL or ARG): E (E is ≦35%)
CCOc1cc(C(=O)N2CCN(C3CCN(C)CC3)CC2)ccc1Nc1cc2c(cn1)N(C)C(=O)c1ccccc1N2S(C)(=O)=O [Compound T87]											IC50 (ERK5; [12]): > 500 nM; inhibition at 1 µM (ERK5; [13]): 50 to 75%; inhibition at 1 µM (AurA; [14]): ≤ 35%; AurB or AurC Inhibition % at indicated screening concentration (AurB or AurC): E (E is ≦35%); inhibition at 1 µM (JAK1; [15]): ≤ 35%; AMPKa1 or AMPKa2 Inhibition % at indicated screening concentration (AMPKa1 or AMPKa2): E (E is ≦35%); inhibition at 1 µM (TAO2; [16]): ≤ 35%; inhibition at 1 µM (ACK; [17]): ≤ 35%; ABL or ARG Inhibition % at indicated screening concentration (ABL or ARG): E (E is ≦35%)
